The supplement of paper PMC10307832

Legend:
Assay in all cases: relative viability (nuclei count vs DMSO), 5 days (fraction); higher = more cells survive
XMD13-2 + Phenformin = compound: C1CC1C(=O)NC2=NNC3=C2C=CC(=C3)C4=CC(=CC=C4)C(=O)NC5CC5 [XMD13-2] + N=C(N)NC(=N)NCCc1ccccc1 [Phenformin] (partner 250 µM)
Procedure, shortened: (§1)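 Dosing by pin tool came one day after lung cancer cell lines were seeded in 1536-well plates, using either one drug or a fixed anchor-drug dose plus five library-drug doses (not always all listed) in √10 steps. After 5 days, nuclei were counted on 4× images. Relative viability is treated-well nuclei count divided by vehicle-well nuclei count, and values are medians of duplicate plates.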

ALW-II-49-7 + Lapatinib = compound: Cc1ccc(C(=O)Nc2cccc(C(F)(F)F)c2)cc1Nc1cncc(C(N)=O)c1 [ALW-II-49-7] + CS(=O)(=O)CCNCc1ccc(-c2ccc3ncnc(Nc4ccc(OCc5cccc(F)c5)c(Cl)c4)c3c2)o1 [Lapatinib] (partner 2 µM)
Procedure, shortened: as §1

XMD13-2 + Dasatinib = compound: C1CC1C(=O)NC2=NNC3=C2C=CC(=C3)C4=CC(=CC=C4)C(=O)NC5CC5 [XMD13-2] + Cc1nc(Nc2ncc(C(=O)Nc3c(C)cccc3Cl)s2)cc(N2CCN(CCO)CC2)n1 [Dasatinib] (partner 0.075 µM)
Procedure, shortened: as §1

Dasatinib + OSI-027 = compound: Cc1nc(Nc2ncc(C(=O)Nc3c(C)cccc3Cl)s2)cc(N2CCN(CCO)CC2)n1 [Dasatinib] + COc1cccc2cc(-c3nc([C@H]4CC[C@H](C(=O)O)CC4)n4ncnc(N)c34)[nH]c12 [OSI-027] (partner 0.5 µM)
Procedure, shortened: as §1

Cell Line	relative viability (XMD13-2 + Phenformin; first compound 0.05 µM)	relative viability (XMD13-2 + Phenformin; first compound 0.1581 µM)	relative viability (XMD13-2 + Phenformin; first compound 0.5 µM)	relative viability (XMD13-2 + Phenformin; first compound 1.581 µM)	relative viability (XMD13-2 + Phenformin; first compound 5 µM)	relative viability (ALW-II-49-7 + Lapatinib; first compound 0.08 µM)	relative viability (ALW-II-49-7 + Lapatinib; first compound 0.253 µM)	relative viability (ALW-II-49-7 + Lapatinib; first compound 0.8 µM)	relative viability (ALW-II-49-7 + Lapatinib; first compound 2.53 µM)	relative viability (ALW-II-49-7 + Lapatinib; first compound 8 µM)	relative viability (XMD13-2 + Dasatinib; first compound 0.05 µM)	relative viability (XMD13-2 + Dasatinib; first compound 0.1581 µM)	relative viability (XMD13-2 + Dasatinib; first compound 0.5 µM)	relative viability (XMD13-2 + Dasatinib; first compound 1.581 µM)	relative viability (XMD13-2 + Dasatinib; first compound 5 µM)	relative viability (Dasatinib + OSI-027; first compound 0.005 µM)	relative viability (Dasatinib + OSI-027; first compound 0.05 µM)	relative viability (Dasatinib + OSI-027; first compound 0.1581 µM)	relative viability (Dasatinib + OSI-027; first compound 0.5 µM)	relative viability (Dasatinib + OSI-027; first compound 0.01581 µM)
LU99A	1.08	0.752	0.833	0.885	0.852	1.03	0.919	0.739	1.12	0.999	0.572	0.646	0.649	0.503	0.456	0.296	0.264	0.232	0.216	
LXF-289	0.538	0.536	0.561	0.551	0.527	0.864	0.818	0.922	1.01	0.967	0.301	0.239	0.242	0.141	0.205	0.812	0.567	0.323	0.125	0.733
NCI-H23	1	0.796	0.802	0.725	0.916	0.88	1.1	1.35	1.02	1.01	0.907	0.725	0.82	0.748	0.99	0.497	0.615	0.492	0.325	0.502
NCI-H441	1.06	0.801	0.883	0.884	0.871						0.567	0.668	0.54	0.625	0.516	0.784	0.742	0.424	0.307	0.582
NCI-H522	0.732	0.656	0.708	0.616	0.602						0.81	0.891	0.94	0.821	0.792	0.72	0.643	0.596	0.632	0.69
NCI-H1299						0.986	1.06	0.916	0.839	0.763										
NCI-H1623	0.52	0.564	0.582	0.554	0.61						0.533	0.52	0.467	0.526	0.585	0.423	0.396	0.462	0.339	0.393
NCI-H1648																0.264	0.306	0.268	0.24	0.274
NCI-H1703						1.17	1.14	0.906	0.448	0.363										
NCI-H2342	0.567	0.602	0.597	0.642	0.651						0.334	0.357	0.334	0.313	0.349	0.563	0.518	0.403	0.36	0.503
SW 900	0.696	0.621	0.682	0.49	0.781						0.616	0.537	0.601	0.578	0.652	0.588	0.481	0.311	0.14	0.547
